Experimental data as given in US8853264B2, “Use of lignan compounds for treating or preventing inflammatory disease” (Newtree Industry Co., Ltd., priority 2005, dated 2014).

Test system: edemas of the rat ears induced by TPA
Assay: TPA-induced rat ear edema inhibition test
Assay type: in vivo, Wistar rats
Settings: for Edema thickness: topical in acetone 30 min after TPA, measured after 8 hours
Description: The anti-inflammatory activity of the lignan compound isolated and purified in <Example 1> was tested in animal models. The anti-inflammatory activity was measured by edema inhibition test on rats. As the test animals, 5-week-old Wistar rats (DaeHan Biolink Co., Ltd, Korea) were used. The animals were provided with standard pellet forming rat feed (Cheiljedang Corporation, Korea) and given freely to feed and water. Also, the animals were housed in conditions of 12-hr light/12-hr dark cycle, temperature of 25±2° C. and humidity of 60±10%. Inflammation inducing agent TPA (12-O-tetradecanoylphorbol-13-acetate; Sigma) was dissolved in acetone to a concentration of 200 μg/mL. The edemas of the rat ears were induced by applying the TPA solution locally to each of the outer and inner faces of the ear in an amount of 10 μl/ear (4 μg/ear). The macelignan purified in <Example 1> and non-steroidal anti-inflammatory drug indomethacin as a control substance were dissolved in acetone and used in amounts of 20, 200 and 2000 μg/ear. Each of the macelignan and the indomethacin was applied locally to the rat ears at 30 minutes after treatment with TPA. A control group was locally applied with acetone. The thickness of the rat ears was measured with a caliper 8 hours after treatment with each of the substances. An increase in the ear thickness in the group treated with the sample was compared to that of the group untreated with the sample, and inflammation inhibitory effect was measured by calculating percent edema inhibition.

`COc1ccc2c(c1)c(CC(=O)O)c(C)n2C(=O)c1ccc(Cl)cc1` [indomethacin, reference compound] was tested, and the Edema inhibition (dose 20 μg/ear) was 25.0%, the Edema thickness (dose 20 μg/ear) was 185 ± 5 μm and the Edema inhibition (dose 200 μg/ear) was 56.5%. It also gave an Edema thickness (dose 200 μg/ear) of 108 ± 8 μm, an Edema inhibition (dose 2000 μg/ear) of 74.2% and an Edema thickness (dose 2000 μg/ear) of 64 ± 7 μm.
